Values joined by “and” are separate entries in the source; they are usually repeats but may differ in a detail not shown here. Equal entries are not always repeated. Active and inactive are the calls of the source.
Tests used:
Cytochrome P450 2C9 = Cytochrome P450 2C9 (Homo sapiens, UniProt P11712)
Cytochrome P450 2C19 = Cytochrome P450 2C19 (Homo sapiens, UniProt P33261); test: Cytochrome panel assay with activity outcomes. Panel member name: p450-cyp2c19 Compounds with AC50 equal or less than 10 uM are considered active; format: functional
Cytochrome P450 1A2 = target: T1, Cytochrome P450 1A2 (Homo sapiens, UniProt P05177);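 further: PubChem cytochrome P450 panel assay, CYP1A2 panel member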
T1 sequence (P05177 whole entry): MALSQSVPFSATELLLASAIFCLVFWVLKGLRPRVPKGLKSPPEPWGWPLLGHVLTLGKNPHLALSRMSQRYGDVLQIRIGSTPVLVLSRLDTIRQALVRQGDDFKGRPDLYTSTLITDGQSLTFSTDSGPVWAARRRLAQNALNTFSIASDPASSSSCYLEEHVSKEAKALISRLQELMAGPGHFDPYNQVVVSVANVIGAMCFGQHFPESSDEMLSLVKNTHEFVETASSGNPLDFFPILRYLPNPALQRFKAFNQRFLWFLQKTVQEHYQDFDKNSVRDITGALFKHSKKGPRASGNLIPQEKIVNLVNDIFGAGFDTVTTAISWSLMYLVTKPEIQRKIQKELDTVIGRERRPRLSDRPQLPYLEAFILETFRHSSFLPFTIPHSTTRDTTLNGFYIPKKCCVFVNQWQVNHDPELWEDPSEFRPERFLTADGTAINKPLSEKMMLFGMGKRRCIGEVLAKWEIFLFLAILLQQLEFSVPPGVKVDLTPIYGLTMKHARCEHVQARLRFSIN

[1] = target: T2, Rac GTPase-activating protein 1 (Homo sapiens, UniProt Q9H0H5); test: blockers of MgcRacGAP-driven Rac1 GTP hydrolysis – biochemical, ADP Hunter fluorescence, primary and confirmatory, confirmation (AID 624330); format: functional
T2 sequence (Q9H0H5 whole entry): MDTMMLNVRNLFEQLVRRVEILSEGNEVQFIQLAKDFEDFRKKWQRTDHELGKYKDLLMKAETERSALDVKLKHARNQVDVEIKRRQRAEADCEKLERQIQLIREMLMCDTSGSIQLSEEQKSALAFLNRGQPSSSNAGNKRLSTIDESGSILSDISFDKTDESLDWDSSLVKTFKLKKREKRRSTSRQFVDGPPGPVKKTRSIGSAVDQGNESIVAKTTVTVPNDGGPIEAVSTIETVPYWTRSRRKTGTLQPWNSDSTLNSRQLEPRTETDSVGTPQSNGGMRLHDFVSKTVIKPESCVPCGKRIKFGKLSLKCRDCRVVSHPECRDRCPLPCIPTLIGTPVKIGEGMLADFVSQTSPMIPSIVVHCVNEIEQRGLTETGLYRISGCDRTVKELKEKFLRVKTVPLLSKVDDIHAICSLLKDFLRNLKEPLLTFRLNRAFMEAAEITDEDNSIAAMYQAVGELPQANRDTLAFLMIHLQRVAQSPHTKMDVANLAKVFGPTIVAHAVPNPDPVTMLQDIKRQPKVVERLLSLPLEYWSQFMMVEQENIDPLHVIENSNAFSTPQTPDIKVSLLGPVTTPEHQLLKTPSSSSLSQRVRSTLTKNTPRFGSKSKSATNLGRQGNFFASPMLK

Cytochrome P450 3A4 = Cytochrome P450 3A4 (Homo sapiens, UniProt P08684);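 further: CYP3A4 tested as one member of a cytochrome P450 panel screen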
Streptokinase A = target: T3, Streptokinase A (Streptococcus pyogenes serotype M1, UniProt P10520); test: viability-normalized secreted streptokinase activity reduction – plasminogen activation absorbance, OD405, dose response (AID 1914); format: functional, Streptococcus pyogenes M1 GAS;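 further: secreted streptokinase activity via plasminogen activation per viability signal from cell pellet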
T3 sequence (P10520 whole entry): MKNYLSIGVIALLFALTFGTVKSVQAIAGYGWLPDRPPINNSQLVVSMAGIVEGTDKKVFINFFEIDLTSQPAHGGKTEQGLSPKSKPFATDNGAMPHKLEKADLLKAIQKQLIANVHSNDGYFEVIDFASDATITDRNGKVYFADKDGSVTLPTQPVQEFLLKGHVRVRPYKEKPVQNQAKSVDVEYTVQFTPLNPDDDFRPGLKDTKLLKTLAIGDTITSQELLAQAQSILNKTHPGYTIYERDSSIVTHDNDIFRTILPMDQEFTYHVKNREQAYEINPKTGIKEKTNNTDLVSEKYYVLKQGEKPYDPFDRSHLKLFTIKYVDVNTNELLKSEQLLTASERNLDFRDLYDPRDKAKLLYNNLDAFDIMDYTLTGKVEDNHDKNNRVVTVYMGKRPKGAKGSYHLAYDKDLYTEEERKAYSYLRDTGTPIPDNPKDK

[2] = test system: Streptococcus sp. 'group A'; test: Streptococcus pyogenes SK(-)GAS viability under kanamycin – luminescence, BacTiterGlo, confirmation, counter-screen for streptokinase expression inhibitor project, dose response (AID 1900); format: functional, organism-based
Streptococcus = test: GAS UMAA2166 growth inhibition – luminescence, BacTiterGlo, counter-screen for streptokinase expression inhibitor project, dose response (AID 1915); format: functional, organism-based;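 further: potency for reduction of bacterial viability or growth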

Chain of Cytochrome P450 2C19 (P33261 whole entry): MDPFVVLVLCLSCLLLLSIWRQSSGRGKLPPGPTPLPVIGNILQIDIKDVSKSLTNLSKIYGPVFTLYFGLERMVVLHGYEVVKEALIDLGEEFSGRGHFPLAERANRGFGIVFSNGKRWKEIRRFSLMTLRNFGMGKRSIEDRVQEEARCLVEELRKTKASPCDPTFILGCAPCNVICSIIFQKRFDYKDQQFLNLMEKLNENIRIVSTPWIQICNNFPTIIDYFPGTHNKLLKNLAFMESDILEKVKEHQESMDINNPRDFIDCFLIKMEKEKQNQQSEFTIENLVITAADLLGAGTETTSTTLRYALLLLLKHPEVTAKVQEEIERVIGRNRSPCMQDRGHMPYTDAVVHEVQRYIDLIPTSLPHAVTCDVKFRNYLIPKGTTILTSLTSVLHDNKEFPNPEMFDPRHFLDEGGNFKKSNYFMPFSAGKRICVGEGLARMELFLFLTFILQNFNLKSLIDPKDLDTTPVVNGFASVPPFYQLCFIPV
Chain of Cytochrome P450 3A4 (P08684 whole entry): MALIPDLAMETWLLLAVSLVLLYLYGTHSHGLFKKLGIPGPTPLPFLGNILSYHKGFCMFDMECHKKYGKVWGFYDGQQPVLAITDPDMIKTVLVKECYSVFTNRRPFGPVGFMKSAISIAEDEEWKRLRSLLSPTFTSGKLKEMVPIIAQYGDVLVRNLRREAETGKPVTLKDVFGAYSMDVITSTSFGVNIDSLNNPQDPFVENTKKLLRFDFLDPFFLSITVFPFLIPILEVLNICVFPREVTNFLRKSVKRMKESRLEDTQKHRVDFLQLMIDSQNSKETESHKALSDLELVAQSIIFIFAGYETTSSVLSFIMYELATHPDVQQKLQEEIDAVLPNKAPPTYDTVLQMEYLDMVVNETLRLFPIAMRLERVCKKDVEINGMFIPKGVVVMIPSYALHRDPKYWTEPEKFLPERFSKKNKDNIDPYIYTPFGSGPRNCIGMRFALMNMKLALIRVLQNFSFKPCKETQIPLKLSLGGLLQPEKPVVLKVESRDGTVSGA
Chain of Cytochrome P450 2C9 (P11712 whole entry): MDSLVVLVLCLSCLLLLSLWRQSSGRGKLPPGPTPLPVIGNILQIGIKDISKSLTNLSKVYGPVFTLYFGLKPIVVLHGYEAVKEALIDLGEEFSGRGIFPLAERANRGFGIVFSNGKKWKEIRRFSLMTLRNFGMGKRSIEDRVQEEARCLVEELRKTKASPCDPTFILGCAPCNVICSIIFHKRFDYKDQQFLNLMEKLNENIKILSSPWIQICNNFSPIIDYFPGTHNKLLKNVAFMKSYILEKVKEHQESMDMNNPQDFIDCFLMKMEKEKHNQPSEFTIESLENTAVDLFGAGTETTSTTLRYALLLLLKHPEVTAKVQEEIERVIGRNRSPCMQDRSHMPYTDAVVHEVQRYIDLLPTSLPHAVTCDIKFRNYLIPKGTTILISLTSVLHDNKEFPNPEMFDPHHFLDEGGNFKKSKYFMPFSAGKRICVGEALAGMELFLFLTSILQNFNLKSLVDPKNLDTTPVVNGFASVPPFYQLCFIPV

COc1ccc(C2=NOC(C(=O)Nc3ccc(C(C)=O)cc3)C2)cc1OC (stereo not drawn)
AC50 (Cytochrome P450 2C9): 11.2 µM (inconclusive) | AC50 (Cytochrome P450 2C19; read-out: AC50): 22.4 µM (inconclusive) | AC50 (Cytochrome P450 1A2): 6.31 µM (inconclusive)

COc1ccc(CNC(=O)c2cnc(C)cn2)cc1
AC50 (Cytochrome P450 1A2): 12.6 µM (inconclusive)

Cc1sc2ncnc(Nc3ccc(O)cc3)c2c1C
IC50 [1]: 39.4 µM (active)

N=C(N)SCc1cccc2c(=O)cc(-c3ccccc3)oc12
AC50 (Cytochrome P450 3A4): 3.16 µM (inconclusive) | AC50 (Cytochrome P450 2C19; read-out: AC50): 3.98 µM (inconclusive)

O=C(CSc1nnc(CNC(=O)c2ccc(F)cc2)o1)NCc1ccccc1Cl
EC50 (Streptokinase A): > 150 µM (not active) | EC50 [2]: > 150 µM (not active) | EC50 (Streptococcus): > 150 µM (not active)

CNC[C@@H](SC)c1ccc(O)c(O)c1
AC50 (Cytochrome P450 1A2): 6.31 µM (inconclusive)

CCCCc1ccc(-c2nc(NC(=O)C3C4CCC(O4)C3C(=O)O)sc2C)cc1 (stereo not drawn)
AC50 (Cytochrome P450 3A4): 14.1 µM (inconclusive) | AC50 (Cytochrome P450 2C9): 3.55 µM (inconclusive)

CC(C)CN1CCCC2(CCN(C(=O)c3csnn3)CC2)C1
AC50 (Cytochrome P450 3A4): 31.6 µM (inconclusive)

C[C@@H](C(=O)NCc1ccc(S(C)(=O)=O)cc1)[C@@H]1C[C@@]1(C)[C@@H](NC(=O)OCc1ccccc1)c1ccccc1
AC50 (Cytochrome P450 1A2): 15.8 µM (inconclusive)

O=C(Nc1ccc(Br)cc1C(=O)O)c1ccc2c(c1)C(=O)N(Cc1ccccc1)C2=O
EC50 (Streptokinase A): 17.5 µM (inconclusive) | EC50 [2]: 0.589 µM (active) | EC50 (Streptococcus): 18.3 µM (active)

C/C(=C(/CCO)SSC[C@@H]1CCCO1)N(C=O)Cc1cnc(C)nc1N
AC50 (Cytochrome P450 3A4): 10 µM (inconclusive)

COc1cccc([C@H](O)Cn2cc(-c3cccc(CON=C(C)C)c3)nn2)c1
AC50 (Cytochrome P450 3A4): 3.98 µM (inconclusive)

Cc1nc(NS(=O)(=O)c2ccc(Cl)s2)c2c3c(sc2n1)CCCC3
EC50 (Streptokinase A): 21.5 µM (inconclusive) | EC50 [2]: 4.37 µM (active) | EC50 (Streptococcus): 14.9 µM (active)

O=C(c1ccccc1)c1ccc2n1CC[C@H]2C(=O)O
AC50 (Cytochrome P450 1A2): 25.1 µM (inconclusive) and 15.8 µM (inconclusive)

CCCC1(C(=O)OC)C=C2C(=C(C)C(=O)C2C)CN1 (stereo not drawn)
AC50 (Cytochrome P450 3A4): 39.8 µM (inconclusive)

Cc1ccc2c(c1)/C(=N/OC(=O)c1ccc(F)cc1)CCS2
AC50 (Cytochrome P450 1A2): 0.501 µM (inconclusive)

COc1ccc(NC(=O)Cn2nnc(C(=O)NCc3cccs3)c2N)cc1Cl
EC50 (Streptokinase A): > 150 µM (not active) | EC50 [2]: 67.2 µM (active) | EC50 (Streptococcus): > 150 µM (not active)

O=C(Oc1ccccc1)N1CCC2(CC1)CN(Cc1ccncc1)C2
AC50 (Cytochrome P450 3A4): 12.6 µM (inconclusive) | AC50 (Cytochrome P450 2C19; read-out: AC50): 20 µM (inconclusive) | AC50 (Cytochrome P450 1A2): 10 µM (inconclusive)

CC(C)(C)OC(=O)N1CCCC1C(=O)NCCc1ccccc1 (stereo not drawn)
AC50 (Cytochrome P450 3A4): 25.1 µM (inconclusive)

N#C/C(=C(\O)C(=O)O)c1ccc(-c2cccc3ccccc23)cc1
AC50 (Cytochrome P450 2C9): 3.16 µM (inconclusive) | AC50 (Cytochrome P450 2C19): inconclusive

COc1cc(CN2CCN(c3ccccc3F)CC2)cc(OC)c1O
IC50 [1]: 143 µM (active)

COc1cccc(C(C#N)N2N=C(C)CC2(C)C)c1O (stereo not drawn)
AC50 (Cytochrome P450 2C19; read-out: AC50): 2.24 µM (inconclusive)

Cn1c(C(=O)N2CCN(c3ccc([N+](=O)[O-])cc3)CC2)cc2c(O)nc3ccccc3c21
EC50 (Streptokinase A): > 150 µM (not active) | EC50 [2]: 5.33 µM (active) | EC50 (Streptococcus): > 150 µM (not active)

CCOC(=O)c1c(CN(C)C)n(-c2ccc(C)cc2)c2cc(Br)c(O)cc12
EC50 (Streptokinase A): 21.9 µM (active) | EC50 [2]: 8.71 µM (active) | EC50 (Streptococcus): > 150 µM (not active)

COC(=O)c1ccc(C(=O)OC)c(NC(=O)CSCc2ccc(Br)cc2)c1
AC50 (Cytochrome P450 2C19; read-out: AC50): 2.24 µM (inconclusive)

CN(C)/C(CN1CCOCC1)=C1\N=C(c2ccccc2)OC1=O
AC50 (Cytochrome P450 2C19; read-out: AC50): 7.94 µM (inconclusive)

O=c1c([N+](=O)[O-])cccn1Cc1ccc(F)cc1Cl
EC50 (Streptokinase A): > 150 µM (not active) | EC50 [2]: 3.27 µM (active) | EC50 (Streptococcus): 7.88 µM (active)

From ChEMBL document CHEMBL1201862, “PubChem BioAssay data set” (2004)
